Assay results taken from US20240050577A1, “CDK INHIBITORS AND PHARMACEUTICAL USES THEREOF” (RISEN (SUZHOU) PHARMA TECH CO., LTD., priority 2022, published 2024).

system: OVCAR3 cells; assay: Cell proliferation study (Cell Titer Glo, 72 h); format: cell-based; conditions: Homo sapiens, OVCAR-3, luminescence, read-out: IC50, inhibitory effect on cellular proliferation
Procedure: OVCAR3 (Cobioer, CBP60294) cell line in logarithmic growth phase was used for these experiments. The cell density was adjusted to 1.1×10^4/mL and the cells were inoculated into a 96-well cell culture plate (Corning, 3599), 95 μL per well (the number of cells per well was 1×10^3). The culture plate was placed in an incubator, with 5% carbon dioxide, at 37° C. and incubated overnight. On the next day, a 10 mM stock solution of test compound was prepared in DMSO (Sigma, RNBF5902). After gradient dilution, a series of working solutions with different concentrations of test compound was prepared using complete medium. Working solution was added into the corresponding wells of the orifice plate, and the plate was placed in a 5% carbon dioxide incubator and cultivated at 37° C. for 72 h, and then removed from the incubator. To each well was added 50 μL Cell Tier Glo (Promega, G7573), and the plate was incubated at room temperature for 10 min, followed by luminescence detection with an enzyme marker. The inhibition curve was obtained with GraphPad 7.0 software using four-parameter equation.

IC50 [µM] | SMILES
0.101 to 1 | CC(C)N1CCOc2c(F)cc(-c3nc(Nc4ccc(C5CCN(CCCCNC(=O)COc6cccc7c6C(=O)N(C6CCC(=O)NC6=O)C7=O)CC5)nc4)ncc3F)cc21 (centres unmarked) [Compound 30]
0.101 to 1 | CC(C)N1CCOc2c(F)cc(-c3nc(Nc4ccc(S(N)(=O)=O)cc4)ncc3F)cc21 [Compound 31]
> 10 | Cc1ccsc1C(=O)n1nc(Nc2ccc(S(=O)(=O)NCCOCc3cn(CCOCCOCCNc4cccc5c4C(=O)N(C4CCC(=O)NC4=O)C5=O)nn3)cc2)nc1N (centres unmarked) [Compound 32]
> 10 | CC(C)N1CCOc2c(F)cc(-c3nc(Nc4ccc(S(=O)(=O)N5CCN(CC6CCN(c7ccc8c(c7)C(=O)N(C7CCC(=O)NC7=O)C8=O)CC6)CC5)cc4)ncc3F)cc21 (centres unmarked) [Compound 33]
> 10 | C[C@@]1(O)CCC[C@H]1n1c(=O)c(Cl)cc2cnc(NC3CCN(S(=O)(=O)C4CCN(C5CC6(CCN(c7cc8c(cc7F)C(=O)N(C7CCC(=O)NC7=O)C8=O)CC6)C5)CC4)CC3)nc21 (some centres unmarked) [Compound 34]
0.101 to 1 | C[C@@]1(O)CCC[C@H]1n1c(=O)c(C(F)F)cc2cnc(NC3CCN(S(=O)(=O)C4CCN(C5CC6(CCN(c7cc8c(cc7F)C(=O)N(C7CCC(=O)NC7=O)C8=O)CC6)C5)CC4)CC3)nc21 (some centres unmarked) [Compound 35]
0.101 to 1 | C[C@@]1(O)CCC[C@H]1n1c(=O)ccc2cnc(NC3CCN(S(=O)(=O)C4CCN(C(=O)C56CC(NCC7CCN(c8cc9c(cc8F)C(=O)N(C8CCC(=O)NC8=O)C9=O)CC7)(C5)C6)CC4)CC3)nc21 (some centres unmarked) [Compound 36]
1 to 5 | Cc1nc2c(F)cc(-c3nc(Nc4ccc(S(=O)(=O)N5CCC6(CCN(C(=O)COc7cccc8c7C(=O)N(C7CCC(=O)NC7=O)C8=O)CC6)CC5)cc4)ncc3F)cc2n1C(C)C (centres unmarked) [Compound 39]
> 10 | Cc1nc2c(F)cc(-c3nc(Nc4ccc(S(=O)(=O)N5CC(C(=O)N6CCC7(CC6)CCN(c6cccc8c6C(=O)N(C6CCC(=O)NC6=O)C8=O)CC7)C5)cc4)ncc3F)cc2n1C(C)C (centres unmarked) [Compound 40]
> 10 | C[C@@]1(O)CCC[C@H]1n1c(=O)ccc2cnc(Nc3ccc(S(=O)(=O)C4CCN(CC5CCN(c6cccc7c6C(=O)N(C6CCC(=O)NC6=O)C7=O)CC5)CC4)cc3)nc21 (some centres unmarked) [Compound 44]
> 10 | C[C@@]1(O)CCC[C@H]1n1c(=O)ccc2cnc(Nc3ccc(S(=O)(=O)C4CCN(C5CCC6(CC5)CN(c5cc7c(cc5F)C(=O)N(C5CCC(=O)NC5=O)C7=O)C6)CC4)cc3)nc21 (some centres unmarked) [Compound 45]
0.101 to 1 | Cc1nc2c(F)cc(-c3nc(Nc4ccc(S(=O)(=O)C5CCN(C6CC7(CCN(c8cc9c(cc8F)C(=O)N(C8CCC(=O)NC8=O)C9=O)CC7)C6)CC5)cc4)ncc3F)cc2n1C(C)C (centres unmarked) [Compound 46]
1 to 5 | Cc1nc2c(F)cc(-c3nc(Nc4ccc(S(=O)(=O)NCCOCCNc5cccc6c5C(=O)N(C5CCC(=O)NC5=O)C6=O)cc4)ncc3F)cc2n1C(C)C (centres unmarked) [Compound 47]
1 to 5 | Cc1nc2c(F)cc(-c3nc(Nc4ccc(S(=O)(=O)NCCOCCOCCOCCNc5cccc6c5C(=O)N(C5CCC(=O)NC5=O)C6=O)cc4)ncc3F)cc2n1C(C)C (centres unmarked) [Compound 48]
1 to 5 | Cc1nc2c(F)cc(-c3nc(Nc4ccc(S(=O)(=O)NCCOCCOCCNc5cccc6c5C(=O)N(C5CCC(=O)NC5=O)C6=O)cc4)ncc3F)cc2n1C(C)C (centres unmarked) [Compound 49]
1 to 5 | Cc1nc2c(F)cc(-c3nc(Nc4ccc(S(=O)(=O)NCCOCc5cn(CCOCCOCCNc6cccc7c6C(=O)N(C6CCC(=O)NC6=O)C7=O)nn5)cc4)ncc3F)cc2n1C(C)C (centres unmarked) [Compound 50]
> 10 | CC(C)N1CCOc2c(F)cc(-c3nc(NC4CCN(S(=O)(=O)C5CCN(C6CC7(CCN(c8cc9c(cc8F)C(=O)N(C8CCC(=O)NC8=O)C9=O)CC7)C6)CC5)CC4)ncc3F)cc21 (centres unmarked) [Compound 51]
1 to 5 | CC(C)N1CCOc2c(F)cc(-c3nc(Nc4ccc(S(=O)(=O)N5CCN(C6CN(C7CCN(c8cccc9c8C(=O)N(C8CCC(=O)NC8=O)C9=O)CC7)C6)CC5)cc4)ncc3F)cc21 (centres unmarked) [Compound 52]
> 10 | CC(C)N1CCOc2c(F)cc(-c3nc(Nc4ccc(S(=O)(=O)N5CCN(C(=O)C6CCN(c7cccc8c7C(=O)N(C7CCC(=O)NC7=O)C8=O)CC6)CC5)cc4)ncc3F)cc21 (centres unmarked) [Compound 53]
> 10 | CC(C)N1CCOc2c(F)cc(-c3nc(Nc4ccc(S(=O)(=O)N5CCN(CC6CCN(c7cccc8c7C(=O)N(C7CCC(=O)NC7=O)C8=O)CC6)CC5)cc4)ncc3F)cc21 (centres unmarked) [Compound 54]
> 10 | CC(C)N1CCOc2c(F)cc(-c3nc(Nc4ccc(S(=O)(=O)N5CCN(C6CCN(C7CN(c8cccc9c8C(=O)N(C8CCC(=O)NC8=O)C9=O)C7)CC6)CC5)cc4)ncc3F)cc21 (centres unmarked) [Compound 55]
1 to 5 | Cc1nc2c(F)cc(-c3nc(Nc4ccc(S(=O)(=O)N5CCN(C6CCN(C7CN(c8cccc9c8C(=O)N(C8CCC(=O)NC8=O)C9=O)C7)CC6)CC5)cc4)ncc3F)cc2n1C(C)C (centres unmarked) [Compound 56]
0.101 to 1 | Cc1nc2c(F)cc(-c3nc(Nc4ccc(S(=O)(=O)N5CCN(CC6CCN(c7cccc8c7C(=O)N(C7CCC(=O)NC7=O)C8=O)CC6)CC5)cc4)ncc3F)cc2n1C(C)C (centres unmarked) [Compound 57]

The remaining lines, values behind:

SMILES | IC50 [µM]
Cc1nc2c(F)cc(-c3nc(Nc4ccc(NS(=O)(=O)CCNC(=O)CO[C@@H]5C[C@H](C)CC[C@H]5C(C)C)cc4)ncc3F)cc2n1C(C)C (racemic) [Compound 26] | 1 to 5
CC(C)N1CCOc2c(F)cc(-c3nc(Nc4ccc(C5CCN(CCCCCCCCCOc6cccc7c6C(=O)N(C6CCC(=O)NC6=O)C7=O)CC5)cn4)ncc3F)cc21 (centres unmarked) [Compound 1] | > 10
CC(C)N1CCOc2c(F)cc(-c3nc(Nc4ccc(C5CCN(CCOCCOCCNc6cccc7c6C(=O)N(C6CCC(=O)NC6=O)C7=O)CC5)cn4)ncc3F)cc21 (centres unmarked) [Compound 2] | > 10
CC(C)N1CCOc2c(F)cc(-c3nc(Nc4ccc(C5CCN(C(=O)COCCOCCNc6cccc7c6C(=O)N(C6CCC(=O)NC6=O)C7=O)CC5)cn4)ncc3F)cc21 (centres unmarked) [Compound 5] | < 0.1
CC(C)N1CCOc2c(F)cc(-c3nc(Nc4ccc(C5CCN(CCOCCOCCOCCNc6cccc7c6C(=O)N(C6CCC(=O)NC6=O)C7=O)CC5)cn4)ncc3F)cc21 (centres unmarked) [Compound 6] | 1 to 5
CC(C)N1CCOc2c(F)cc(-c3nc(Nc4ccc(C5CCN(C(=O)CCCCCCCCOc6cccc7c6C(=O)N(C6CCC(=O)NC6=O)C7=O)CC5)cn4)ncc3F)cc21 (centres unmarked) [Compound 7] | > 10
CC(C)N1CCOc2c(F)cc(-c3nc(Nc4ccc(C5CCN(C6CC7(CCN(c8cc9c(cc8F)C(=O)N(C8CCC(=O)NC8=O)C9=O)CC7)C6)CC5)cn4)ncc3F)cc21 (centres unmarked) [Compound 18, 2-(2,6-dioxo-3-piperidyl)-5-fluoro-6-[2-[4-[6-[[5-fluoro-4-(8-fluoro-4-isopropyl-2,3-dihydro-1,4-benzoxazin-6-yl)pyrimidin-2-yl]amino]-3-pyridyl]-1-piperidyl]-7-azaspiro[3.5]nonan-7-yl]isoindoline-1,3-dione] | > 10
CC(C)N1CCOc2c(F)cc(-c3nc(NC4CCN(S(=O)(=O)C5CCN(CC6CCN(c7ccc8c(c7)C(=O)N(C7CCC(=O)NC7=O)C8=O)CC6)CC5)CC4)ncc3F)cc21 (centres unmarked) [Compound 19, 2-(2,6-dioxo-3-piperidyl)-5-[4-[[4-[[4-[[5-fluoro-4-(8-fluoro-4-isopropyl-2,3-dihydro-1,4-benzoxazin-6-yl)pyrimidin-2-yl]amino]-1-piperidyl]sulfonyl]-1-piperidyl]methyl]-1-piperidyl]isoindoline-1,3-dione] | 0.101 to 1
CC(C)N1CCOc2c(F)cc(-c3nc(Nc4ccc(S(=O)(=O)NCCOCc5cn(CCOCCOCCNc6cccc7c6C(=O)N(C6CCC(=O)NC6=O)C7=O)nn5)cc4)ncc3F)cc21 (centres unmarked) [Compound 20, N-[2-[[1-[2-[2-[2-[[2-(2,6-dioxo-3-piperidyl)-1,3-dioxo-isoindolin-4-yl]amino]ethoxy]ethoxy]ethyl]triazol-4-yl]methoxy]ethyl]-4-[[5-fluoro-4-(8-fluoro-4-isopropyl-2,3-dihydro-1,4-benzoxazin-6-yl)pyrimidin-2-yl]amino]benzenesulfonamide] | > 10
CC(C)N1CCOc2c(F)cc(-c3nc(Nc4ccc(S(=O)(=O)NCCOCc5cn(CCOCCOCCNc6cc7c(cc6F)C(=O)N(C6CCC(=O)NC6=O)C7=O)nn5)cc4)ncc3F)cc21 (centres unmarked) [Compound 21, N-[2-[[1-[2-[2-[2-[[2-(2,6-dioxo-3-piperidyl)-6-fluoro-1,3-dioxo-isoindolin-5-yl]amino]ethoxy]ethoxy]ethyl]triazol-4-yl]methoxy]ethyl]-4-[[5-fluoro-4-(8-fluoro-4-isopropyl-2,3-dihydro-1,4-benzoxazin-6-yl)pyrimidin-2-yl]amino]benzenesulfonamide] | 1 to 5
C[C@@]1(O)CCC[C@H]1n1c(=O)ccc2cnc(Nc3ccc(S(=O)(=O)C4CCN(C5CC6(CCN(c7cc8c(cc7F)C(=O)N(C7CCC(=O)NC7=O)C8=O)CC6)C5)CC4)cc3)nc21 (some centres unmarked) [Compound 22] | > 10
C[C@@]1(O)CCC[C@H]1n1c(=O)ccc2cnc(Nc3ccc(S(=O)(=O)C4CCN(CC5CCN(c6cc7c(cc6F)C(=O)N(C6CCC(=O)NC6=O)C7=O)CC5)CC4)cc3)nc21 (some centres unmarked) [Compound 23] | > 10
CC(C)[C@@H]1CC[C@@H](C)C[C@H]1OCC(=O)NCCS(=O)(=O)N1CCC(Nc2ncc(F)c(-c3cc(F)c4c(c3)N(C(C)C)CCO4)n2)CC1 [Compound 27] | > 10
CC(C)N1CCOc2c(F)cc(-c3nc(Nc4ccc(C5CCN(CCCCCCOc6cccc7c6C(=O)N(C6CCC(=O)NC6=O)C7=O)CC5)cn4)ncc3F)cc21 (centres unmarked) [Compound 28] | > 10

same assay, conditions: luminescence, read-out: IC50, inhibitory effect on cellular proliferation

IC50 [µM] | SMILES
> 10 | CC(C)N1CCOc2c(F)cc(-c3nc(Nc4ccc(C5CCN(CCCCCCOc6cccc7c6C(=O)N(C6CCC(=O)NC6=O)C7=O)CC5)cn4)ncc3F)cc21 (centres unmarked) [Compound 3]
